ChEMBL document CHEMBL4622943, “Design, synthesis and biological evaluation of 2-methyl-(1,1'-biphenyl)-pyrimidine conjugates” (Bioorg Med Chem Lett, 2020)
Calls of active or inactive are those of the source. The rule behind the calls is not given here.

Legend:
[1] = tested on: A549; assay: Inhibition of cell migration in human A549 cells incubated for 48 hrs by wound healing assay; format: functional, cell-based
[2] = tested on: HCC827; assay: Antiproliferative activity against human HCC827 cells assessed as cell growth inhibition by CCK8 assay; format: functional, cell-based
[3] = tested on: HT-29; assay: Inhibition of cell migration in human HT-29 cells incubated for 48 hrs by wound healing assay; format: functional, cell-based
[4] = tested on: HepG2; assay: Inhibition of cell migration in human HepG2 cells incubated for 48 hrs by wound healing assay; format: functional, cell-based
[5] = Selectivity index, ratio of IC50 for human MRC5 cells to IC50 for human A549 cells assessed as cell growth inhibition by CCK8 assay; format: toxicity; conditions: MRC5 cells versus A549 cells, read-out: Ratio IC50
[6] = tested on: SK-OV-3; assay: Inhibition of cell migration in human SKOV3 cells incubated for 48 hrs by wound healing assay; format: functional, cell-based
[7] = tested on: MRC5; assay: Cytotoxicity against human MRC5 cells assessed as cell growth inhibition by CCK8 assay; format: cell-based
[8] = Selectivity index, ratio of IC50 for human MRC5 cells to IC50 for human SKOV3 cells assessed as cell growth inhibition by CCK8 assay; format: toxicity; conditions: MRC5 cells versus SKOV3 cells, read-out: Ratio IC50
[9] = Selectivity index, ratio of IC50 for human MRC5 cells to IC50 for human HepG2 cells assessed as cell growth inhibition by CCK8 assay; format: toxicity; conditions: MRC5 cells versus HepG2 cells, read-out: Ratio IC50
[10] = Selectivity index, ratio of IC50 for human MRC5 cells to IC50 for human HT-29 cells assessed as cell growth inhibition by CCK8 assay; format: toxicity; conditions: MRC5 cells versus HT-29 cells, read-out: Ratio IC50
[11] = tested on: MDA-MB-231; assay: Antiproliferative activity against human MDA-MB-231 cells assessed as cell growth inhibition by CCK8 assay; format: functional, cell-based
[12] = tested on: A-375; assay: Antiproliferative activity against human A375 cells assessed as cell growth inhibition by CCK8 assay; format: functional, cell-based
[13] = tested on: AGS; assay: Antiproliferative activity against human AGS cells assessed as cell growth inhibition by CCK8 assay; format: functional, cell-based
[14] = tested on: NCI-H1299; assay: Antiproliferative activity against human H1299 cells assessed as cell growth inhibition by CCK8 assay; format: functional, cell-based
[15] = tested on: SK-OV-3; assay: Induction of apoptosis in human SKOV3 cells assessed as necrotic cells at 5 uM by FITC staining based flow cytometry (reference value: 1.74 to 1.93 %); format: functional
[16] = tested on: SK-OV-3; assay: Induction of apoptosis in human SKOV3 cells assessed as necrotic cells at 10 uM by FITC staining based flow cytometry (reference value: 1.74 to 1.93 %); format: functional
[17] = tested on: SK-OV-3; assay: Induction of apoptosis in human SKOV3 cells assessed as live cells at 10 uM by FITC staining based flow cytometry (reference value: 95.5 to 96 %); format: functional
[18] = tested on: SK-OV-3; assay: Induction of apoptosis in human SKOV3 cells assessed as late apoptotic cells at 5 uM by FITC staining based flow cytometry (reference value: 2.14 to 2.83 %); format: functional
[19] = tested on: SK-OV-3; assay: Induction of apoptosis in human SKOV3 cells assessed as live cells at 5 uM by FITC staining based flow cytometry (reference value: 95.5 to 96 %); format: functional
[20] = tested on: SK-OV-3; assay: Induction of apoptosis in human SKOV3 cells assessed as early apoptotic cells at 5 uM by FITC staining based flow cytometry (reference value: 0.59 to 0.97 %); format: functional
[21] = tested on: SK-OV-3; assay: Antiinvasive activity against human SKOV3 cells at 0.6 uM after 24 hrs by crystal violet staining based transwell assay relative to control; format: functional
[22] = tested on: SK-OV-3; assay: Induction of apoptosis in human SKOV3 cells assessed as early apoptotic cells at 10 uM by FITC staining based flow cytometry (reference value: 0.59 to 0.97 %); format: functional
[23] = tested on: SK-OV-3; assay: Induction of apoptosis in human SKOV3 cells assessed as late apoptotic cells at 10 uM by FITC staining based flow cytometry (reference value: 2.14 to 2.83 %); format: functional
[24] = tested on: A549; assay: Induction of apoptosis in human A549 cells assessed as early apoptotic cells at 10 uM by FITC staining based flow cytometry (reference value: 0.34 to 0.39 %); format: functional
[25] = tested on: A549; assay: Inhibition of cell migration in human A549 cells at 0.6 uM incubated for 48 hrs by wound healing assay relative to control; format: functional; conditions: A549, 48 h
[26] = tested on: A549; assay: Induction of apoptosis in human A549 cells assessed as late apoptotic cells at 5 uM by FITC staining based flow cytometry (reference value: 2.12 to 2.33 %); format: functional
[27] = tested on: A549; assay: Induction of apoptosis in human A549 cells assessed as early apoptotic cells at 5 uM by FITC staining based flow cytometry (reference value: 0.34 to 0.39 %); format: functional
[28] = tested on: A549; assay: Induction of apoptosis in human A549 cells assessed as necrotic cells at 10 uM by FITC staining based flow cytometry (reference value: 0.78 to 1.49 %); format: functional
[29] = tested on: A549; assay: Induction of apoptosis in human A549 cells assessed as live cells at 10 uM by FITC staining based flow cytometry (reference value: 96 to 96.6 %); format: functional
[30] = tested on: A549; assay: Antiinvasive activity against human A549 cells at 0.6 uM after 24 hrs by crystal violet staining based transwell assay relative to control; format: functional
[31] = tested on: A549; assay: Induction of apoptosis in human A549 cells assessed as live cells at 5 uM by FITC staining based flow cytometry (reference value: 96 to 96.6 %); format: functional
[32] = tested on: A549; assay: Induction of apoptosis in human A549 cells assessed as late apoptotic cells at 10 uM by FITC staining based flow cytometry (reference value: 2.12 to 2.33 %); format: functional
[33] = tested on: SK-OV-3; assay: Inhibition of cell migration in human SKOV3 cells at 0.6 uM incubated for 48 hrs by wound healing assay relative to control; format: functional; conditions: SK-OV-3, 48 h
[34] = tested on: A549; assay: Induction of apoptosis in human A549 cells assessed as necrotic cells at 5 uM by FITC staining based flow cytometry (reference value: 0.78 to 1.49 %); format: functional
[35] = target: Programmed cell death protein 1/Programmed cell death 1 ligand 1 (Homo sapiens, UniProt Q15116+Q9NZQ7); assay: Inhibition of PD1 (unknown origin)/PDL1 (unknown origin) protein-protein interaction by HTRF assay; format: protein-complex assay
Chain of Programmed cell death protein 1/Programmed cell death 1 ligand 1 (Q15116 whole entry): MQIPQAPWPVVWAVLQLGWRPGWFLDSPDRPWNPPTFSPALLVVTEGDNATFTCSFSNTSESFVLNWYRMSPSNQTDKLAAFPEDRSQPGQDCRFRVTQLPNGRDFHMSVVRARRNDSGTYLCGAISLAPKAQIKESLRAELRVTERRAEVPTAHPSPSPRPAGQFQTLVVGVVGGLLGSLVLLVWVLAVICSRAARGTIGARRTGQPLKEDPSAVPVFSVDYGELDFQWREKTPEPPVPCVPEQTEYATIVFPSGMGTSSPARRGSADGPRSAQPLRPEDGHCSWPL
Chain of Programmed cell death protein 1/Programmed cell death 1 ligand 1 (Q9NZQ7 whole entry): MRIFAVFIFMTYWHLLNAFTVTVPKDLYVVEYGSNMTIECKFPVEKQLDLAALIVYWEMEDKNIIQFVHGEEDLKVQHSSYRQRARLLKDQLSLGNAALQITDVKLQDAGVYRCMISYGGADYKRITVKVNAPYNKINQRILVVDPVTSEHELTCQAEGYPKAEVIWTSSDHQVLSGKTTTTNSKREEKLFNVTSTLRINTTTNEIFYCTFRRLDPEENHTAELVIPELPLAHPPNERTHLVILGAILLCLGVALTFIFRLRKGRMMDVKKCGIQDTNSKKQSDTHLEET

## Cc1c(CNc2nc(NCCCN3CCCC3)cc(N3CCOCC3)n2)cccc1-c1ccccc1
[1]
  inhibition: Active
[2]
  IC50: 7.28 µM
[3]
  inhibition: Active
[4]
  inhibition: Active
[5]
  selectivity ratio: 103
[6]
  inhibition: Active
[7]
  IC50: 1050 µM
[8]
  selectivity ratio: 139
[9]
  selectivity ratio: 198
[10]
  selectivity ratio: 139
[11]
  IC50: 6.75 µM
[12]
  IC50: 7 µM
[13]
  IC50: 4.52 µM
[14]
  IC50: 8.1 µM

## Cc1c(CNc2nc(NCCCN3CCCCC3)cc(N3CCOCC3)n2)cccc1-c1ccccc1
[1]
  inhibition: Active
[3]
  inhibition: Active
[15]
  Activity: 1.87%
[4]
  inhibition: Active
[16]
  Activity: 2.18%
[17]
  Activity: 91.3%
[5]
  selectivity ratio: 185
[18]
  Activity: 2.31%
[6]
  inhibition: Active
[19]
  Activity: 95%
[7]
  IC50: 879 µM
[8]
  selectivity ratio: 267
[20]
  Activity: 0.85%
[9]
  selectivity ratio: 295
[10]
  selectivity ratio: 267
[21]
  Activity: 60%
[22]
  Activity: 1.49%
[23]
  Activity: 4.98%

## Cc1c(CNc2nc(NCCCN(C)C)cc(N3CCOCC3)n2)cccc1-c1ccccc1
[1]
  inhibition: Active
[24]
  Activity: 4.42%
[3]
  inhibition: Active
[4]
  inhibition: Active
[25]
  inhibition at 0.6 µM: 53.4%
[26]
  Activity: 3.99%
[5]
  selectivity ratio: 112
[27]
  Activity: 1.28%
[6]
  inhibition: Active
[7]
  IC50: 1050 µM
[8]
  selectivity ratio: 129
[28]
  Activity: 3.76%
[9]
  selectivity ratio: 213
[10]
  selectivity ratio: 129
[29]
  Activity: 81.7%
[30]
  Activity: 21.81%
[31]
  Activity: 92.7%
[32]
  Activity: 18.2%
[33]
  inhibition at 0.6 µM: 39.6%
[34]
  Activity: 2.05%

## Cc1c(CNc2nc(NCCCN3CCOCC3)cc(N3CCOCC3)n2)cccc1-c1ccccc1
[2]
  IC50: 7.28 µM
[11]
  IC50: 6.75 µM
[12]
  IC50: 7 µM
[13]
  IC50: 4.52 µM
[14]
  IC50: 8.1 µM

## CCN(CC)CCCNc1cc(N2CCOCC2)nc(NCc2cccc(-c3ccccc3)c2C)n1
[1]
  inhibition: Active
[3]
  inhibition: Active
[4]
  inhibition: Active
[5]
  selectivity ratio: 114
[6]
  inhibition: Active
[7]
  IC50: 924 µM
[8]
  selectivity ratio: 119
[9]
  selectivity ratio: 165
[10]
  selectivity ratio: 119

## CCN(CC)CCCNc1cc(N2CCNCC2)nc(NCc2cccc(-c3ccccc3)c2C)n1
[1]
  inhibition: Active
[35]
  IC50: 5.15 µM
[2]
  IC50: 5.27 µM
[24]
  Activity: 17.7%
[3]
  inhibition: Active
[15]
  Activity: 3.16%
[4]
  inhibition: Active
[25]
  inhibition at 0.6 µM: 42.4%
[16]
  Activity: 25.7%
[26]
  Activity: 6.33%
[17]
  Activity: 54.5%
[5]
  selectivity ratio: 147
[27]
  Activity: 4.3%
[18]
  Activity: 4.08%
[6]
  inhibition: Active
[19]
  Activity: 87.8%
[7]
  IC50: 579 µM
[8]
  selectivity ratio: 278
[28]
  Activity: 8.19%
[20]
  Activity: 5%
[9]
  selectivity ratio: 82
[10]
  selectivity ratio: 278
[21]
  Activity: 66.68%
[22]
  Activity: 11.5%
[29]
  Activity: 59.6%
[23]
  Activity: 8.26%
[30]
  Activity: 70.23%
[31]
  Activity: 87.1%
[11]
  IC50: 4.88 µM
[12]
  IC50: 4.03 µM
[13]
  IC50: 3.11 µM
[32]
  Activity: 14.6%
[33]
  inhibition at 0.6 µM: 68.6%
[34]
  Activity: 2.24%
[14]
  IC50: 6.74 µM
